In ChEMBL document CHEMBL4033741, “Dioscin suppresses TGF-β1-induced epithelial-mesenchymal transition and suppresses A549 lung cancer migration and invasion” (2017):
Calls of active or inactive are those of the source. The rule behind the calls is not given here.

How the values were obtained:
[1] = tested on: A549; assay: Inhibition of TGF-beta1-induced cell invasion in human A549 cells at 2.5 to 3 uM measured after 48 hrs by Matrigel invasion assay; format: functional, cell-based
[2] = tested on: A549; assay: Antiproliferative activity against human A549 cells assessed as cell survival rate at 0.5 uM incubated for 24 hrs by CCK8 assay; format: functional; conditions: A549, 24 h, read-out: Survival
[3] = tested on: A549; assay: Antiproliferative activity against human A549 cells assessed as cell survival rate at 1 uM incubated for 24 hrs by CCK8 assay; format: functional; conditions: A549, 24 h, read-out: Survival
[4] = tested on: A549; assay: Antiproliferative activity against human A549 cells assessed as cell survival rate at 2 uM incubated for 24 hrs by CCK8 assay; format: functional; conditions: A549, 24 h, read-out: Survival
[5] = tested on: A549; assay: Antiproliferative activity against human A549 cells assessed as cell survival rate at 2.5 uM incubated for 24 hrs by CCK8 assay; format: functional; conditions: A549, 24 h, read-out: Survival
[6] = tested on: A549; assay: Antiproliferative activity against human A549 cells assessed as cell survival rate at 3 uM incubated for 24 hrs by CCK8 assay; format: functional; conditions: A549, 24 h, read-out: Survival
[7] = tested on: A549; assay: Antiproliferative activity against human A549 cells assessed as inhibition of cell growth at 4 uM incubated for 24 to 48 hrs by CCK8 assay; format: functional, cell-based
[8] = tested on: A549; assay: Inhibition of TGF-beta1-induced epithelial-mesenchymal transition in human A549 cells assessed as suppression of cell elongation and spindle like shapes pre-incubated for 2 hrs at 2.5 to 3 uM for 2 hrs followed by TGF-beta1 stimulation for 24 hrs; format: functional, cell-based
[9] = tested on: A549; assay: Inhibition of TGF-beta1-induced epithelial-mesenchymal transition in human A549 cells assessed as increase in E-cadherin expression pre-incubated for 2 hrs at 2.5 to 3 uM for 2 hrs followed by TGF-beta1 stimulation for 24 hrs by Western blot method; format: functional, cell-based
[10] = tested on: A549; assay: Inhibition of TGF-beta1-induced epithelial-mesenchymal transition in human A549 cells assessed as decrease in N-cadherin expression pre-incubated for 2 hrs at 2.5 to 3 uM for 2 hrs followed by TGF-beta1 stimulation for 24 hrs by Western blot method; format: functional, cell-based
[11] = tested on: A549; assay: Inhibition of TGF-beta1-induced epithelial-mesenchymal transition in human A549 cells assessed as increase in E-cadherin gene expression at 2.5 to 3 uM for 2 hrs followed by TGF-beta1 stimulation for 24 hrs by qRT-PCR method; format: functional, cell-based
[12] = tested on: A549; assay: Inhibition of TGF-beta1-induced epithelial-mesenchymal transition in human A549 cells assessed as reduction in N-cadherin gene expression at 2.5 to 3 uM for 2 hrs followed by TGF-beta1 stimulation for 24 hrs by qRT-PCR method; format: functional, cell-based
[13] = tested on: A549; assay: Inhibition of TGF-beta1-induced epithelial-mesenchymal transition in human A549 cells assessed as reduction in SNAI2 gene expression at 2.5 to 3 uM for 2 hrs followed by TGF-beta1 stimulation for 24 hrs by qRT-PCR method; format: functional, cell-based
[14] = tested on: A549; assay: Inhibition of TGF-beta1-induced epithelial-mesenchymal transition in human A549 cells assessed as reduction in vimentin gene expression at 2.5 to 3 uM for 2 hrs followed by TGF-beta1 stimulation for 24 hrs by qRT-PCR method; format: functional, cell-based
[15] = tested on: A549; assay: Inhibition of TGF-beta1-induced epithelial-mesenchymal transition in human A549 cells assessed as reduction in Smad2 gene expression at 2.5 to 3 uM for 2 hrs followed by TGF-beta1 stimulation for 24 hrs by qRT-PCR method; format: functional, cell-based
[16] = tested on: A549; assay: Inhibition of TGF-beta1-induced epithelial-mesenchymal transition in human A549 cells assessed as reduction in TGFbeta gene expression at 2.5 to 3 uM for 2 hrs followed by TGF-beta1 stimulation for 24 hrs by qRT-PCR method; format: functional, cell-based
[17] = tested on: A549; assay: Inhibition of TGF-beta1-induced epithelial-mesenchymal transition in human A549 cells assessed as reduction in TGFbetaR1 gene expression at 2.5 to 3 uM for 2 hrs followed by TGF-beta1 stimulation for 24 hrs by qRT-PCR method; format: functional, cell-based
[18] = tested on: A549; assay: Inhibition of TGF-beta1-induced epithelial-mesenchymal transition in human A549 cells assessed as reduction in Snail gene expression at 2.5 to 3 uM for 2 hrs followed by TGF-beta1 stimulation for 24 hrs by qRT-PCR method; format: functional, cell-based
[19] = tested on: A549; assay: Inhibition of TGF-beta1-induced epithelial-mesenchymal transition in human A549 cells assessed as reduction in Snail protein expression at 2.5 to 3 uM for 2 hrs followed by TGF-beta1 stimulation for 24 hrs by Western blot method; format: functional, cell-based
[20] = tested on: A549; assay: Inhibition of TGF-beta1-induced cell migration in human A549 cells at 2.5 to 3 uM treated along with TGF-beta1 stimulation following cell layer cell layer scratching measured after 24 hrs; format: functional, cell-based
[21] = tested on: A549; assay: Inhibition of TGF-beta1-induced MMP2 gene expression in human A549 cells at 2.5 to 3 uM for 2 hrs followed by TGF-beta1 stimulation for 24 hrs by qRT-PCR method; format: functional, cell-based
[22] = tested on: A549; assay: Inhibition of TGF-beta1-induced MMP9 gene expression in human A549 cells at 2.5 to 3 uM for 2 hrs followed by TGF-beta1 stimulation for 24 hrs by qRT-PCR method; format: functional, cell-based
[23] = molecular target: 72 kDa type IV collagenase (Homo sapiens) (UniProt P08253); assay: Inhibition of TGF-beta1-induced MMP2 activity in human A549 cells at 2.5 to 3 uM for 2 hrs followed by TGF-beta1 stimulation for 24 hrs by gelatin zymography; format: cell-based
[24] = molecular target: Matrix metalloproteinase-9 (Homo sapiens) (UniProt P14780); assay: Inhibition of TGF-beta1-induced MMP9 activity in human A549 cells at 2.5 to 3 uM for 2 hrs followed by TGF-beta1 stimulation for 24 hrs by gelatin zymography; format: cell-based
[25] = molecular target: Mothers against decapentaplegic homolog 2 (Homo sapiens) (UniProt Q15796); assay: Inhibition of TGF-beta1-induced Smad2 phosphorylation in human A549 cells at 2.5 to 3 uM for 2 hrs followed by TGF-beta1 stimulation for 24 hrs by Western blot method; format: cell-based
[26] = molecular target: MAP kinase p38 (Homo sapiens) (UniProt O15264+Q15759+Q16539+P53778); assay: Inhibition of TGF-beta1-induced p38 phosphorylation in human A549 cells at 2.5 to 3 uM for 2 hrs followed by TGF-beta1 stimulation for 24 hrs by Western blot method; format: cell-based

Chain of 72 kDa type IV collagenase (Homo sapiens) (P08253 110-660 limits assumed): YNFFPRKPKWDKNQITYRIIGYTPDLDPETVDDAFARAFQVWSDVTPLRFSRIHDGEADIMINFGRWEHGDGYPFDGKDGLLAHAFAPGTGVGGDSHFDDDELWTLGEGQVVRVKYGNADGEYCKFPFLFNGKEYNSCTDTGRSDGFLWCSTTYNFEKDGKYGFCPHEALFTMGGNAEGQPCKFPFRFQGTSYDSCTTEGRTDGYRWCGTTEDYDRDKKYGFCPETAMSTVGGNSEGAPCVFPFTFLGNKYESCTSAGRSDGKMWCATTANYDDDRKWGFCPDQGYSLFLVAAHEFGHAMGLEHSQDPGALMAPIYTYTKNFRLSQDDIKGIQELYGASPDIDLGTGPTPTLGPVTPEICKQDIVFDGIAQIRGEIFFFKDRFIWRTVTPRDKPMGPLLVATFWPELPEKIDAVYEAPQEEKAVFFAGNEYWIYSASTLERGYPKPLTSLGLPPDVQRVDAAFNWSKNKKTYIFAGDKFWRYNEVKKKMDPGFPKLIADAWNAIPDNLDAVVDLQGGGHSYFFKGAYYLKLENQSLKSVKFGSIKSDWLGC
Chain of Matrix metalloproteinase-9 (Homo sapiens) (P14780 whole entry): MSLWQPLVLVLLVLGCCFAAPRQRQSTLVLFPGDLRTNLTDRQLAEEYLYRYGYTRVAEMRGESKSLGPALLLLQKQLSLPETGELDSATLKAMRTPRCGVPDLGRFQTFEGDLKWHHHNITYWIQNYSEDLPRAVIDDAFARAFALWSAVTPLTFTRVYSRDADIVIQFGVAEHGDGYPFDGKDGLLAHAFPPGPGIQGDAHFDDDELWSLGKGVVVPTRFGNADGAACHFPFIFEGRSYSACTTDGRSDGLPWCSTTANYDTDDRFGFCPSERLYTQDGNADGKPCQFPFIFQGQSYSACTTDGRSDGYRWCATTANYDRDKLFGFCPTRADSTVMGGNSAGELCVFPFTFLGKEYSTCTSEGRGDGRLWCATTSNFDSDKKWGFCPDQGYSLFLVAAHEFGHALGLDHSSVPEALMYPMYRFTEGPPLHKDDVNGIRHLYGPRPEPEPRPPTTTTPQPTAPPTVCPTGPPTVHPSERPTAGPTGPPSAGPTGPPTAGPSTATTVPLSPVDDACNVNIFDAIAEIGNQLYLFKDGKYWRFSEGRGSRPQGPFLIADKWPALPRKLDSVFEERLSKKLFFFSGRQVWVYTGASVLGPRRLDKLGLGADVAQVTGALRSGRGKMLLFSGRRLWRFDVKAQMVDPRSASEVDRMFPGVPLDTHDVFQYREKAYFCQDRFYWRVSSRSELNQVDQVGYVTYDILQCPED
Chain of Mothers against decapentaplegic homolog 2 (Homo sapiens) (Q15796 whole entry): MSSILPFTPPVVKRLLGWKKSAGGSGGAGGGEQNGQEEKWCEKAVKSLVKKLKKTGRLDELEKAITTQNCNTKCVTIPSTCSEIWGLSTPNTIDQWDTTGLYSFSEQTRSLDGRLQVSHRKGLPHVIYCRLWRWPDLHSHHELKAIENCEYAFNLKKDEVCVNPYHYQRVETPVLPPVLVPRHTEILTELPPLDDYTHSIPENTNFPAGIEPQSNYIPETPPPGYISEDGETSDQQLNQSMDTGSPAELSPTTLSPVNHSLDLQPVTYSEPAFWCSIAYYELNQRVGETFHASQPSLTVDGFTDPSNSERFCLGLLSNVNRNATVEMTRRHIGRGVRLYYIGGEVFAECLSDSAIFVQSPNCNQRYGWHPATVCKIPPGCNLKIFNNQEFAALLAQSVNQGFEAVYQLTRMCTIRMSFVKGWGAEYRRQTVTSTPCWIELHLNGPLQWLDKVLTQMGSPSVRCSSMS

What does the source list for `C[C@@H]1CC[C@@]2(OC1)O[C@H]1C[C@H]3[C@@H]4CC=C5C[C@@H](O[C@@H]6O[C@H](CO)[C@@H](O[C@@H]7O[C@@H](C)[C@H](O)[C@@H](O)[C@H]7O)[C@H](O)[C@H]6O[C@@H]6O[C@@H](C)[C@H](O)[C@@H](O)[C@H]6O)CC[C@]5(C)[C@H]4CC[C@]3(C)[C@H]1[C@@H]2C` [DIOSCIN]?
inhibition [1]: Active; viability at 0.5 µM [2]: > 80%; viability at 1 µM [3]: > 80%; viability at 2 µM [4]: > 80%; viability at 2.5 µM [5]: > 80%; viability at 3 µM [6]: > 80%; growth inhibition (GI) [7]: Active; inhibition [8]: Active; inhibition [9]: Active; inhibition [10]: Active; inhibition [11]: Dose-dependent effect; inhibition [12]: Dose-dependent effect; inhibition [13]: Dose-dependent effect; inhibition [14]: Dose-dependent effect; inhibition [15]: Dose-dependent effect; inhibition [16]: Dose-dependent effect; inhibition [17]: Dose-dependent effect; inhibition [18]: Dose-dependent effect; inhibition [19]: Dose-dependent effect; inhibition [20]: Dose-dependent effect; inhibition [21]: Dose-dependent effect; inhibition [22]: Dose-dependent effect; inhibition [23]: Active; inhibition [24]: Active; inhibition [25]: Dose-dependent effect; inhibition [26]: Active
